The source of these data is patent publication US6608082B1, “Treatment of erectile dysfunction using isoquinoline compound melanocortin receptor ligands” (Lion Bioscience AG, priority 1998, dated 2003).

One test concerns the target T1, MCR-4 (Homo sapiens, UniProt P32245).
T1 construct: expressed in transfected cells; host or cells: HEK 293
The test is described as follows: Melanocortin receptor binding assay, competition with 125I-HP 467, HEK 293 cells expressing hMCR-4. On the procedure: All cell culture media and reagents were obtained from GibcoBRL (Gaithersburg Md.), except for COSMIC CALF SERUM (HyClone; Logan Utah).
Cells were suspended in PBS, 10% COSMIC CALF SERUM and 1 mM CaCl2. Cell suspensions were prepared at a density of 2×10^4 cells/ml for HEK 293 cells expressing hMCR-3, hMCR-4 or hMCR-5, and 1×10^5 cells/ml for HEK 293 cells expressing hMCR-1. Suspensions were placed in a water bath and allowed to warm to 37° C. for 1 hr.
Binding assays were performed in a total volume of 250 μl for HEK 293 cells. […] To each tube was added 4×10^3 HEK 293 cells expressing hMCR-3, hMCR-4 or hMCR-5, or 2×10^4 cells expressing hMCR-1. Assays were incubated for 2.5 hr at 37° C.
GF/B filter plates were prepared by soaking for at least one hour in 5 mg/ml BSA and 10 mM CaCl2. Assays were filtered using a Brandel 96-well cell harvester (Brandel Inc.; Gaithersburg, Md.). The filters were washed four times with cold 50 mM Tris, pH 7.4, the filter plates were dehydrated for 2 hr and 35 μl of MICROSCINT was added to each well. Filter plates were counted using a Packard Topcount (Packard Instrument Co.) and data analyzed using GraphPad PRISM v2.0 (GraphPad Software Inc.; San Diego Calif.) and Microsoft EXCEL v5.0a (Microsoft Corp.; Redmond Wash.).
To assay isoquinoline compounds, binding assays were performed in duplicate in a 96 well format. […] A 0.2 ml aliquot of suspended cells was added to each well to give the cell numbers indicate above, and the cells were incubated at 37° C. for 2.5 hr. Cells were harvested on GF/B filter plates as described above and counted.

The target in another test is T2, MCR-1 (Homo sapiens, UniProt Q01726).
T2 construct: expressed in transfected cells; host or cells: HEK 293
T2 sequence (Q01726 whole entry): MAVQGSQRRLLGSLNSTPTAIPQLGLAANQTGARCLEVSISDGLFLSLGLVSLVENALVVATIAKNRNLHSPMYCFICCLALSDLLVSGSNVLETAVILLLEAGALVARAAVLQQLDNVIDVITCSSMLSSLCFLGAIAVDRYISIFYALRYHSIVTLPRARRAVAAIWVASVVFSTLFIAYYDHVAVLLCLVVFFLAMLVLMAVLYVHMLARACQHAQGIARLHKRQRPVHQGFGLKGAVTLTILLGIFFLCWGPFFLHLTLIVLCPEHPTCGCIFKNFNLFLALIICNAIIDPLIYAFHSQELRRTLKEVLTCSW
As to the kind of experiment: Melanocortin receptor binding assay, competition with 125I-HP 467, HEK 293 cells expressing hMCR-1. In short, it runs like this:
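Intact-cell competition binding, 2.5 hr at 37 °C, in PBS/10% calf serum/1 mM CaCl2; hMCR-4 cells at 4×10^3 per tube, hMCR-1 cells at 2×10^4 per tube. Filtration on BSA/CaCl2-soaked GF/B, cold 50 mM Tris pH 7.4 washes, scintillation count.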

[1] abbreviates: inhibition of binding of 125I-HP 467, HEK 293 cells expressing MCR-4; TRG 2414 library; read-out: MC-4 IC50.
Setting [2] is: inhibition of binding of 125I-HP 467, HEK 293 cells expressing MCR-1; TRG 2414 library; read-out: MC-1 IC50.
Setting [3] is: inhibition of binding of 125I-HP 467, HEK 293 cells expressing MCR-4; TRG 2414 library.
The mark [4] stands for this setting: inhibition of binding of 125I-HP 467, HEK 293 cells expressing MCR-4; read-out: MC-4 IC50.
The mark [5] stands for this setting: inhibition of binding of 125I-HP 467, HEK 293 cells expressing MCR-1; read-out: MC-1 IC50.
The mark [6] stands for this setting: TRG 2414 library; inhibition of binding of 125I-HP 467, HEK 293 cells expressing MCR-4; read-out: MC-4 IC50.
[7] abbreviates: TRG 2414 library; inhibition of binding of 125I-HP 467, HEK 293 cells expressing MCR-1; read-out: MC-1 IC50.

Where two headings read alike, the source gives them in different places.

T1 sequence (P32245 whole entry): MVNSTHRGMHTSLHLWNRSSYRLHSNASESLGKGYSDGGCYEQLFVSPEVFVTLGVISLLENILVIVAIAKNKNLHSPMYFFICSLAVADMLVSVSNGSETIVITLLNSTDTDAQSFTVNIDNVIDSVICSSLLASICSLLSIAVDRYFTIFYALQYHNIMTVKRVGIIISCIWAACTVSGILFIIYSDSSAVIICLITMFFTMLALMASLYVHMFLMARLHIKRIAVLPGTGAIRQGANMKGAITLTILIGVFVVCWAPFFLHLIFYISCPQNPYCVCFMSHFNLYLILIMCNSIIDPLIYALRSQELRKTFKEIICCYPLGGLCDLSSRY

With `COc1ccc(CCNCC2c3ccccc3CN(CCCCC(CN)NCCc3ccccc3)C2c2ccc(Cl)cc2Cl)cc1` (mixture of isomers) [TRG 2414-26], the IC50 (commonly the concentration that inhibits the measured activity by half) turned out to be 2.52 µM on MCR-4 (setting [1]) and 3.95 µM at MCR-1 (setting [2]).
With `NCC(N)CCCCN1Cc2ccccc2C(CNC2CCCCCC2)C1c1ccc(Cl)cc1Cl` (mixture of isomers) [TRG 2414-33], the results for the concentration for half-maximal inhibition (IC50) at MCR-4 (setting [1]) and at MCR-1 (setting [2]) were 0.72 µM and 1.9 µM, respectively.
Taken in the same sequence, the figures for `NCC(N)CCCCN1Cc2ccccc2C(CNC2CCCCC2)C1c1ccc(Cl)cc1Cl` (mixture of isomers) [TRG 2414-37] were 1.3 µM and 0.992 µM.
With `NCC(CCCCN1Cc2ccccc2C(CNC2CCCCC2)C1c1ccc(Cl)cc1Cl)NCc1ccccc1` (mixture of isomers) [TRG 2414-39], the IC50 at MCR-4 (setting [1]) was 4.37 µM; on MCR-1 (setting [2]), 2.12 µM.
Consider `COc1ccccc1CCNCC1c2ccccc2CN(CCCCC(CN)NCC(C)c2ccc(CC(C)C)cc2)C1c1cc(C(F)(F)F)cc(C(F)(F)F)c1` (mixture of isomers) [TRG 2414-52], for which the IC50 at MCR-4 (setting [1]) turned out to be 17.5 µM; on MCR-1 (setting [2]), 22.1 µM.
As for `NCC(N)CCCCN1Cc2ccccc2C(CNCc2ccccc2C(F)(F)F)C1c1cccc(Oc2ccccc2)c1` (mixture of isomers) [TRG 2414-81], the IC50 at MCR-4 (setting [1]) amounted to 9.87 µM; on MCR-1 (setting [2]) it was 10.8 µM.
Regarding `NCC(CCCCN1Cc2ccccc2C(CNCc2ccccc2C(F)(F)F)C1c1cccc(Oc2ccccc2)c1)NCCc1ccccc1` (mixture of isomers) [TRG 2414-82], the IC50 on MCR-4 (setting [1]) was found to be 42.9 µM. Further, the “MC-1 IC50” value at MCR-1 (inhibition of binding of 125I-HP 467, HEK 293 cells expressing MCR-1; TRG 2414 library) is listed as “no fit”.
For `CCOc1ccccc1CNCC1c2ccccc2CN(CCCCC(N)CN)C1c1cccc(Oc2ccccc2)c1` (mixture of isomers) [TRG 2414-85], the IC50 was found to be 2.17 µM at MCR-4 (setting [1]) and 2.43 µM on MCR-1 (setting [2]).
On to `COc1ccccc1CCNCC1c2ccccc2CN(CCCCC(CN)NCC(C)c2ccc(CC(C)C)cc2)C1c1cccc(Oc2ccccc2)c1` (mixture of isomers) [TRG 2414-92], for which the “MC-4 IC50” value at MCR-4 (setting [3]) is given as “no fit”. The IC50 at MCR-1 (setting [2]) was found to be 42.6 µM.
For `COc1cccc(CNCC2c3ccccc3CN(CCCCC(N)CN)C2c2cccc(Oc3ccccc3)c2)c1` (mixture of isomers) [TRG 2414-97], the half-maximal inhibitory concentration (IC50) was 2.5 µM on MCR-4 (setting [1]) and 4.51 µM on MCR-1 (setting [2]).
Take `COc1cccc(CNCC2c3ccccc3CN(CCCCC(CN)NCCc3ccccc3)C2c2cccc(Oc3ccccc3)c2)c1` (mixture of isomers) [TRG 2414-98]: the IC50 at MCR-4 (setting [1]) was found to be 9.61 µM; at MCR-1 (setting [2]), 13.2 µM.
On the same counts, the results for `COc1ccc(CNCC2c3ccccc3CN(CCCCC(CN)NCc3ccccc3)C2c2cccc(Oc3ccccc3)c2)cc1` (mixture of isomers) [TRG 2414-103] are 7.48 µM and 8.13 µM.
With `NCC(CCCCN1Cc2ccccc2C(CNC2CCCCC2)C1c1cccc(Oc2ccccc2)c1)NCCc1ccccc1` (mixture of isomers) [TRG 2414-118], the IC50 was determined as 4.49 µM on MCR-4 (setting [1]) and 8.44 µM on MCR-1 (setting [2]).
As for `CCOc1ccccc1CNCC1c2ccccc2CN(CCCCC(CN)NCC(C)c2ccc(CC(C)C)cc2)C1c1ccc(Oc2ccccc2)cc1` (mixture of isomers) [TRG 2414-128], the “MC-4 IC50” value on MCR-4 (setting [3]) is on record as “no fit”. At MCR-1 (setting [2]), the IC50 came out at 25 µM.
With `COc1ccccc1CCNCC1c2ccccc2CN(CCCCC(N)CN)C1c1ccc(Oc2ccccc2)cc1` (mixture of isomers) [TRG 2414-129], the IC50 was 5.58 µM at MCR-4 (setting [1]) and 0.146 µM at MCR-1 (setting [2]).
Taken in the same sequence, the figures for `COc1ccc(CCNCC2c3ccccc3CN(CCCCC(CN)NCCc3ccccc3)C2c2ccc(Oc3ccccc3)cc2)cc1` (mixture of isomers) [TRG 2414-146] were 16.8 µM and 8.21 µM.
As for `NCC(CCCCN1Cc2ccccc2C(CNC2CCCCC2)C1c1ccc(Oc2ccccc2)cc1)NCCc1ccccc1` (mixture of isomers) [TRG 2414-158], the half-maximal inhibitory concentration (IC50) on MCR-4 (setting [1]) worked out at 6.71 µM; at MCR-1 (setting [2]), 2.74 µM.
In the case of `CCCOc1ccc(C2C(CNCc3ccccc3C(F)(F)F)c3ccccc3CN2CCCCC(CN)NCCc2ccccc2)cc1` (mixture of isomers) [TRG 2414-162], the IC50 worked out at 18.4 µM on MCR-4 (setting [1]) and 19.1 µM on MCR-1 (setting [2]).
On the same counts, the results for `CCCOc1ccc(C2C(CNCc3ccccc3OCC)c3ccccc3CN2CCCCC(N)CN)cc1` (mixture of isomers) [TRG 2414-165] are 5.06 µM and 0.994 µM.
Turning to `CCCOc1ccc(C2C(CNCCc3cccc(Cl)c3)c3ccccc3CN2CCCCC(CN)NCCc2ccccc2)cc1` (mixture of isomers) [TRG 2414-174], the IC50 on MCR-4 (setting [1]) is 5.42 µM; on MCR-1 (setting [2]) it was 4.3 µM.
Taken in the same sequence, the figures for `CCCOc1ccc(C2C(CNCc3cccc(OC)c3)c3ccccc3CN2CCCCC(N)CN)cc1` (mixture of isomers) [TRG 2414-177] were 5.07 µM and 0.739 µM.
Turning to `CCCOc1ccc(C2C(CNCc3cccc(OC)c3)c3ccccc3CN2CCCCC(CN)NCC(C)c2ccc(CC(C)C)cc2)cc1` (mixture of isomers) [TRG 2414-180], the IC50 at MCR-4 (setting [1]) came out at 47.1 µM; on MCR-1 (setting [2]) it was 8.19 µM.
With `CCCOc1ccc(C2C(CO)c3ccccc3CN2CCCC(CN)NCCC2CCCCC2)cc1` (mixture of isomers) [TRG 2415-4], the IC50 stood at 2.55 µM on MCR-4 (setting [4]) and 2.57 µM at MCR-1 (setting [5]).
Taken in the same sequence, the figures for `CCCCOc1ccc(C2C(CN)c3ccccc3CN2CCCCC(CN)NCC)cc1` (mixture of isomers) [TRG 2415-18] were 7.95 µM and 0.306 µM.
In the case of `Cc1ccc(CNC(CN)CCCCN2Cc3ccccc3C(CNCCc3ccccc3)C2c2cc(C(F)(F)F)cc(C(F)(F)F)c2)cc1` (mixture of isomers) [TRG 2421-2], the IC50 stood at 3.03 µM at MCR-4 (setting [4]) and 3.73 µM at MCR-1 (setting [5]).
With `NCC(CCCCN1Cc2ccccc2C(CNCCc2ccc(O)cc2)C1c1cc(C(F)(F)F)cc(C(F)(F)F)c1)NCc1ccc(Br)cc1` (mixture of isomers) [TRG 2421-8], the IC50 was 5.99 µM at MCR-4 (setting [4]) and 5 µM at MCR-1 (setting [5]).
On to `COc1ccc(CCNCC2c3ccccc3CN(CCCCC(CN)NCc3ccc(C)cc3)C2c2cc(C(F)(F)F)cc(C(F)(F)F)c2)cc1OC` (mixture of isomers) [TRG 2421-17], for which the IC50 on MCR-4 (setting [4]) worked out at 0.83 µM; on MCR-1 (setting [5]) it was 2.06 µM.
Take `CCNc1ccc(C2C(CN)c3ccccc3CN2CCC[C@@H](CN)NCCCCOc2ccccc2)cc1` (some centres unmarked) [2424#2]: the IC50 on MCR-4 (setting [4]) was 7.77 µM; at MCR-1 (setting [5]) it was 0.05 µM.
On the same counts, the results for `CCNc1ccc(C2C(CNCCc3ccccc3)c3ccccc3CN2CCC[C@@H](CN)NCCCCOc2ccccc2)cc1` (some centres unmarked) [2424#5] are 1.51 µM and 0.05 µM.
For `CCNc1ccc(C2C(CN)c3ccccc3CN2CCCC[C@@H](CN)NCCCCOc2ccccc2)cc1` (some centres unmarked) [2424#8], the IC50 on MCR-4 (setting [4]) came to 5.18 µM; on MCR-1 (setting [5]), 0.22 µM.
As for `CCNc1ccc(C2C(CNCCc3ccccc3)c3ccccc3CN2CCCC[C@@H](CN)NCCCCOc2ccccc2)cc1` (some centres unmarked) [2424#11], the IC50 at MCR-4 (setting [4]) came to 3.52 µM; on MCR-1 (setting [5]) it was 0.21 µM.
Regarding `CCCOc1ccc(C2C(CNCCc3ccc(OC)cc3)c3ccccc3CN2CCCCC(N)CN)cc1` (centres unmarked) [Cmpd 185], the IC50 at MCR-4 (setting [6]) amounted to 4.26 µM; at MCR-1 (setting [7]) it was 0.542 µM.
For `CCCOc1ccc(C2C(CNCCc3ccc(OC)cc3)c3ccccc3CN2CCCCC(CN)NCCc2ccccc2)cc1` (centres unmarked) [Cmpd 186], the IC50 on MCR-4 (setting [6]) came out at 8.09 µM; at MCR-1 (setting [7]), 2.81 µM.
On to `CCCOc1ccc(C2C(CNCCc3ccc(OC)cc3)c3ccccc3CN2CCCCC(CN)NCc2ccccc2)cc1` (centres unmarked) [Cmpd 187], for which the IC50 on MCR-4 (setting [6]) was 1.47 µM; on MCR-1 (setting [7]) it was 1.07 µM.
As to `CCCOc1ccc(C2C(CNCCc3ccc(OC)cc3)c3ccccc3CN2CCCCC(CN)NCC(C)c2ccc(CC(C)C)cc2)cc1` (centres unmarked) [Cmpd 188], the IC50 turned out to be 20 µM at MCR-4 (setting [6]) and 7.9 µM on MCR-1 (setting [7]).
On to `CCCOc1ccc(C2C(CNCc3ccccc3)c3ccccc3CN2CCCCC(N)CN)cc1` (centres unmarked) [Cmpd 189], for which the IC50 on MCR-4 (setting [6]) turned out to be 2.31 µM; at MCR-1 (setting [7]), 0.869 µM.
Turning to `CCCOc1ccc(C2C(CNCc3ccccc3)c3ccccc3CN2CCCCC(CN)NCCc2ccccc2)cc1` (centres unmarked) [Cmpd 190], the IC50 at MCR-4 (setting [6]) came out at 5.42 µM; at MCR-1 (setting [7]), 1.44 µM.
